Experimental data reported in PubChem BioAssay (NCI).
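Five concentrations, 48 hours, 96-well plates. The concentration for full growth arrest is given as TGI.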

What was measured:
Test in all cases: NCI tumour cell line growth inhibition, 48 h
786-0 renal = tested on: 786-0 renal
A498 renal = tested on: A498 renal
A549 NSCLC = tested on: A549 NSCLC
ACHN renal = tested on: ACHN renal
CCRF-CEM leukemia = tested on: CCRF-CEM leukemia
COLO 205 colon = tested on: COLO 205 colon
DLD-1 colon = tested on: DLD-1 colon
DMS 114 small cell lung = tested on: DMS 114 small cell lung
DMS 273 small cell lung = tested on: DMS 273 small cell lung
EKVX NSCLC = tested on: EKVX NSCLC
HCC-2998 colon = tested on: HCC-2998 colon
HCT-116 colon = tested on: HCT-116 colon
HCT-15 colon = tested on: HCT-15 colon
HL-60(TB) leukemia = tested on: HL-60(TB) leukemia
HOP-18 NSCLC = tested on: HOP-18 NSCLC
HOP-62 NSCLC = tested on: HOP-62 NSCLC
HOP-92 NSCLC = tested on: HOP-92 NSCLC
HT29 colon = tested on: HT29 colon
IGROV1 ovarian = tested on: IGROV1 ovarian
K-562 leukemia = tested on: K-562 leukemia
KM12 colon = tested on: KM12 colon
KM20L2 colon = tested on: KM20L2 colon
LOX IMVI melanoma = tested on: LOX IMVI melanoma
LXFL 529 NSCLC = tested on: LXFL 529 NSCLC
M14 melanoma = tested on: M14 melanoma
M19-MEL melanoma = tested on: M19-MEL melanoma
MALME-3M melanoma = tested on: MALME-3M melanoma
MOLT-4 leukemia = tested on: MOLT-4 leukemia
NCI-H226 lung = tested on: NCI-H226 lung
NCI-H23 lung = tested on: NCI-H23 lung
NCI-H460 lung = tested on: NCI-H460 lung
NCI-H522 lung = tested on: NCI-H522 lung
OVCAR-3 ovarian = tested on: OVCAR-3 ovarian
OVCAR-4 ovarian = tested on: OVCAR-4 ovarian
OVCAR-8 ovarian = tested on: OVCAR-8 ovarian
RPMI-8226 leukemia = tested on: RPMI-8226 leukemia
RXF 393 renal = tested on: RXF 393 renal
SF-268 CNS = tested on: SF-268 CNS
SF-295 CNS = tested on: SF-295 CNS
SF-539 CNS = tested on: SF-539 CNS
SK-MEL-2 melanoma = tested on: SK-MEL-2 melanoma
SK-MEL-28 melanoma = tested on: SK-MEL-28 melanoma
SK-OV-3 ovarian = tested on: SK-OV-3 ovarian
SN12C renal = tested on: SN12C renal
SNB-19 CNS = tested on: SNB-19 CNS
SNB-75 CNS = tested on: SNB-75 CNS
SNB-78 CNS = tested on: SNB-78 CNS
SR leukemia = tested on: SR leukemia
SW-620 colon = tested on: SW-620 colon
TK-10 renal = tested on: TK-10 renal
U251 CNS = tested on: U251 CNS
UACC-257 melanoma = tested on: UACC-257 melanoma
UACC-62 melanoma = tested on: UACC-62 melanoma
UO-31 renal = tested on: UO-31 renal
XF 498 CNS = tested on: XF 498 CNS
CAKI-1 renal = tested on: CAKI-1 renal
OVCAR-5 ovarian = tested on: OVCAR-5 ovarian
SK-MEL-5 melanoma = tested on: SK-MEL-5 melanoma

Measured: TGI

CCOC(=O)C(Cc1ccc([N+](=O)[O-])cc1)NC(=O)CC1c2ccccc2-c2ccccc21 (stereo unspecified)
41.6 µM: RXF 393 renal
57.9 µM: M14 melanoma
68.8 µM: SNB-75 CNS
42.3 µM: MALME-3M melanoma
38.9 µM: M19-MEL melanoma
45.1 µM: ACHN renal
56.5 µM: HOP-92 NSCLC
91.5 µM: UACC-257 melanoma
77.4 µM: SF-539 CNS
65.3 µM: SNB-78 CNS
53.6 µM: XF 498 CNS
> 100 µM: 786-0 renal | A498 renal | A549 NSCLC | CCRF-CEM leukemia | COLO 205 colon | DLD-1 colon | DMS 114 small cell lung | DMS 273 small cell lung | EKVX NSCLC | HCC-2998 colon | HCT-116 colon | HCT-15 colon | HL-60(TB) leukemia | HOP-18 NSCLC | HOP-62 NSCLC | HT29 colon | IGROV1 ovarian | K-562 leukemia | KM12 colon | KM20L2 colon | LOX IMVI melanoma | LXFL 529 NSCLC | MOLT-4 leukemia | NCI-H226 lung | NCI-H23 lung | NCI-H460 lung | NCI-H522 lung | OVCAR-3 ovarian | OVCAR-4 ovarian | OVCAR-8 ovarian | RPMI-8226 leukemia | SF-268 CNS | SF-295 CNS | SK-MEL-2 melanoma | SK-MEL-28 melanoma | SK-OV-3 ovarian | SN12C renal | SNB-19 CNS | SR leukemia | SW-620 colon | TK-10 renal | U251 CNS | UACC-62 melanoma | UO-31 renal

CC(=O)N(C)c1ccc2ncccc2c1[N+](=O)[O-]
> 100 µM: 786-0 renal | A498 renal | A549 NSCLC | ACHN renal | CAKI-1 renal | CCRF-CEM leukemia | DLD-1 colon | DMS 114 small cell lung | DMS 273 small cell lung | EKVX NSCLC | HCC-2998 colon | HCT-116 colon | HCT-15 colon | HL-60(TB) leukemia | HOP-18 NSCLC | HOP-62 NSCLC | HOP-92 NSCLC | HT29 colon | IGROV1 ovarian | K-562 leukemia | KM12 colon | KM20L2 colon | LOX IMVI melanoma | LXFL 529 NSCLC | M14 melanoma | M19-MEL melanoma | MALME-3M melanoma | MOLT-4 leukemia | NCI-H226 lung | NCI-H23 lung | NCI-H460 lung | OVCAR-3 ovarian | OVCAR-4 ovarian | OVCAR-5 ovarian | OVCAR-8 ovarian | RPMI-8226 leukemia | RXF 393 renal | SF-268 CNS | SF-295 CNS | SF-539 CNS | SK-MEL-2 melanoma | SK-MEL-28 melanoma | SK-MEL-5 melanoma | SN12C renal | SNB-19 CNS | SNB-75 CNS | SNB-78 CNS | SR leukemia | SW-620 colon | TK-10 renal | UACC-257 melanoma | UACC-62 melanoma | UO-31 renal | XF 498 CNS

Cc1cn(C2CC(n3cncn3)C(C(C)O)O2)c(=O)[nH]c1=O (stereo unspecified)
> 100 µM: 786-0 renal | A549 NSCLC | ACHN renal | CCRF-CEM leukemia | COLO 205 colon | DLD-1 colon | DMS 114 small cell lung | DMS 273 small cell lung | EKVX NSCLC | HCC-2998 colon | HCT-116 colon | HCT-15 colon | HL-60(TB) leukemia | HOP-18 NSCLC | HOP-92 NSCLC | HT29 colon | IGROV1 ovarian | K-562 leukemia | KM12 colon | KM20L2 colon | LOX IMVI melanoma | LXFL 529 NSCLC | M14 melanoma | M19-MEL melanoma | MALME-3M melanoma | MOLT-4 leukemia | NCI-H226 lung | NCI-H23 lung | NCI-H460 lung | NCI-H522 lung | OVCAR-3 ovarian | OVCAR-4 ovarian | OVCAR-5 ovarian | OVCAR-8 ovarian | RPMI-8226 leukemia | RXF 393 renal | SF-268 CNS | SF-295 CNS | SF-539 CNS | SK-MEL-2 melanoma | SK-MEL-28 melanoma | SK-MEL-5 melanoma | SK-OV-3 ovarian | SN12C renal | SNB-19 CNS | SNB-75 CNS | SNB-78 CNS | SW-620 colon | TK-10 renal | U251 CNS | UACC-257 melanoma | UACC-62 melanoma | UO-31 renal | XF 498 CNS

Cc1cccc(-c2nnc3s/c(=C\c4ccc5c(c4)OCO5)c(=O)n23)c1
> 100 µM: 786-0 renal | A498 renal | A549 NSCLC | ACHN renal | CAKI-1 renal | CCRF-CEM leukemia | COLO 205 colon | DLD-1 colon | DMS 114 small cell lung | DMS 273 small cell lung | EKVX NSCLC | HCC-2998 colon | HCT-116 colon | HCT-15 colon | HL-60(TB) leukemia | HOP-18 NSCLC | HOP-62 NSCLC | HOP-92 NSCLC | IGROV1 ovarian | K-562 leukemia | KM12 colon | KM20L2 colon | LOX IMVI melanoma | LXFL 529 NSCLC | M14 melanoma | M19-MEL melanoma | MALME-3M melanoma | MOLT-4 leukemia | NCI-H226 lung | NCI-H23 lung | NCI-H460 lung | NCI-H522 lung | OVCAR-3 ovarian | OVCAR-4 ovarian | OVCAR-5 ovarian | OVCAR-8 ovarian | RPMI-8226 leukemia | RXF 393 renal | SF-268 CNS | SF-295 CNS | SF-539 CNS | SK-MEL-2 melanoma | SK-MEL-28 melanoma | SK-MEL-5 melanoma | SK-OV-3 ovarian | SN12C renal | SNB-19 CNS | SNB-75 CNS | SNB-78 CNS | SW-620 colon | TK-10 renal | U251 CNS | UACC-257 melanoma | UACC-62 melanoma | UO-31 renal | XF 498 CNS

CC#CC(OCC)(OCC)OCC
49.1 µM: DMS 273 small cell lung
> 100 µM: 786-0 renal | A498 renal | A549 NSCLC | ACHN renal | CAKI-1 renal | CCRF-CEM leukemia | COLO 205 colon | DLD-1 colon | EKVX NSCLC | HCC-2998 colon | HCT-116 colon | HCT-15 colon | HL-60(TB) leukemia | HOP-18 NSCLC | HOP-62 NSCLC | HOP-92 NSCLC | HT29 colon | IGROV1 ovarian | K-562 leukemia | KM12 colon | KM20L2 colon | LXFL 529 NSCLC | M14 melanoma | M19-MEL melanoma | MALME-3M melanoma | MOLT-4 leukemia | NCI-H226 lung | NCI-H23 lung | NCI-H460 lung | NCI-H522 lung | OVCAR-3 ovarian | OVCAR-4 ovarian | OVCAR-5 ovarian | OVCAR-8 ovarian | RPMI-8226 leukemia | RXF 393 renal | SF-268 CNS | SF-295 CNS | SF-539 CNS | SK-MEL-2 melanoma | SK-MEL-28 melanoma | SK-MEL-5 melanoma | SK-OV-3 ovarian | SN12C renal | SNB-19 CNS | SNB-75 CNS | SNB-78 CNS | SR leukemia | TK-10 renal | U251 CNS | UACC-257 melanoma | UACC-62 melanoma | UO-31 renal | XF 498 CNS
39.9 µM: LOX IMVI melanoma
74.3 µM: DMS 114 small cell lung
